Laboratory results from the supplement of paper PMC11208160.

assay: recombinant UMI read abundance after kanamycin selection (control-corrected) (log10(CPM+1)); higher = more efficient recombination; extreme values may be limits of the assay; sequences stand for … in AGTGCAGAGAAAATCGGCCAGTTTTCTCTGCCTGCAGTCCGCATGCCGTGGGACCCCTTGGGTTCTAACCTGTTGCCTAGATTTATGCAGCGGACTGCCTTTCTCCCAAAGTGATAAACCGG…AGGTTGGTTTCACT; site = the 11-nt donor
Procedure, shortened: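 Pooled Escherichia coli screen of donor and donor-binding-loop pairs for the IS621 bridge recombinase. Each pair sits with a 12-nt UMI on a plasmid carrying a promoterless kanamycin gene. The library was co-electroporated with a target plasmid encoding a fixed target and T7-inducible recombinase, then plated with IPTG (0.07 mM) plus kanamycin, or unselected, each in two replicates. Recombinant UMIs were PCR-amplified across the donor–target junction and sequenced. Counts became CPM, averaged over replicates, scaled by control-derived factors and reported as log10(CPM+1).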
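Note: IS621 bridge recombinase in Escherichia coli cells against a fixed T5 target plasmid.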

“GCGAAGCCATGGACCGGTTTTCCCGGTAATCCGTATTTGGG (site CCGAAGCCTCC)” and “GCGAAGCCATGGACCGGTTTTCCCGGTAATCCGTATTTGGG (site GAGAAGCCTCC)” are within 0.2 log units of each other in “recombinant UMI read abundance (log10)” value: 0.0227 for the first, 0.00349 for the second.

“GCGAAGCCATGGACCGGTTTTCCCGGTAATCCGTATTTGGG (site GCAAAGCCTCC)” and “GCGAAGCCATGGACCGGTTTTCCCGGTAATCCGTATTTGGG (site GCCAAGCCTCC)” are within 0.2 log units of each other in “recombinant UMI read abundance (log10)” value: 0.00547 for the first, 0 for the second.

“GCGAAGCCATGGACCGGTTTTCCCGGTAATCCGTATTTGGG (site GCGAAACCTCC)” and “GCGAAGCCATGGACCGGTTTTCCCGGTAATCCGTATTTGGG (site GCGAACCCTCC)” are the same in “recombinant UMI read abundance (log10)” value: 0 for the first, 0 for the second.

“GCGAAGCCATGGACCGGTTTTCCCGGTAATCCGTATTTGGG (site GCGAAGACTCC)” and “GCGAAGCCATGGACCGGTTTTCCCGGTAATCCGTATTTGGG (site GCGAAGCCTAC)” are within 0.2 log units of each other in “recombinant UMI read abundance (log10)” value: 0.0597 for the first, 0 for the second.

“GCGAAGCCATGGACCGGTTTTCCCGGTAATCCGTATTTGGG (site GCGAAGCCTCA)” and “GCGAAGCCATGGACCGGTTTTCCCGGTAATCCGTATTTGGG (site GCGAAGCCTCC)” are within 0.2 log units of each other in “recombinant UMI read abundance (log10)” value: 0.00806 for the first, 0.00509 for the second.

“GCGAAGCCATGGACCGGTTTTCCCGGTAATCCGTATTTGGG (site GCGAAGCCTCG)” and “GCGAAGCCATGGACCGGTTTTCCCGGTAATCCGTATTTGGG (site GCGAAGCCTCT)” are within 0.2 log units of each other in “recombinant UMI read abundance (log10)” value: 0 for the first, 0.00749 for the second.

“GCGAAGCCATGGACCGGTTTTCCCGGTAATCCGTATTTGGG (site GCGAAGCCTGC)” and “GCGAAGCCATGGACCGGTTTTCCCGGTAATCCGTATTTGGG (site GCGAAGCCTTC)” are within 0.2 log units of each other in “recombinant UMI read abundance (log10)” value: 0 for the first, 0.0136 for the second.

“GCGAAGCCATGGACCGGTTTTCCCGGTAATCCGTATTTGGG (site GCGAAGGCTCC)” and “GCGAAGCCATGGACCGGTTTTCCCGGTAATCCGTATTTGGG (site GCGAAGTCTCC)” are within 0.2 log units of each other in “recombinant UMI read abundance (log10)” value: 0 for the first, 0.00693 for the second.

“GCGAAGCCATGGACCGGTTTTCCCGGTAATCCGTATTTGGG (site GCGAATCCTCC)” and “GCGAAGCCATGGACCGGTTTTCCCGGTAATCCGTATTTGGG (site GCGACGCCTCC)” are within 0.2 log units of each other in “recombinant UMI read abundance (log10)” value: 0.0162 for the first, 0.00657 for the second.

“GCGAAGCCATGGACCGGTTTTCCCGGTAATCCGTATTTGGG (site GCGAGGCCTCC)” and “GCGAAGCCATGGACCGGTTTTCCCGGTAATCCGTATTTGGG (site GCGATGCCTCC)” are within 0.2 log units of each other in “recombinant UMI read abundance (log10)” value: 0.0307 for the first, 0 for the second.

“GCGAAGCCATGGACCGGTTTTCCCGGTAATCCGTATTTGGG (site GCGCAGCCTCC)” and “GCGAAGCCATGGACCGGTTTTCCCGGTAATCCGTATTTGGG (site GCGGAGCCTCC)” are within 0.2 log units of each other in “recombinant UMI read abundance (log10)” value: 0.011 for the first, 0.0363 for the second.

“GCGAAGCCATGGACCGGTTTTCCCGGTAATCCGTATTTGGG (site GCGTAGCCTCC)” and “GCGAAGCCATGGACCGGTTTTCCCGGTAATCCGTATTTGGG (site GCTAAGCCTCC)” are within 0.2 log units of each other in “recombinant UMI read abundance (log10)” value: 0.0104 for the first, 0.0212 for the second.

“GCGAAGCCATGGACCGGTTTTCCCGGTAATCCGTATTTGGG (site GGGAAGCCTCC)” and “GCGAAGCCATGGACCGGTTTTCCCGGTAATCCGTATTTGGG (site GTGAAGCCTCC)” are within 0.2 log units of each other in “recombinant UMI read abundance (log10)” value: 0.0306 for the first, 0.0355 for the second.

“GCGAAGCCATGGACCGGTTTTCCCGGTAATCCGTATTTGGG (site TCGAAGCCTCC)” and “GCGAATCCATGGACCGGTTTTCCCGGTAATCCGTATTTGGG (site GCGAAACCTCC)” are within 0.2 log units of each other in “recombinant UMI read abundance (log10)” value: 0.0116 for the first, 0.0049 for the second.

First: GCGAATCCATGGACCGGTTTTCCCGGTAATCCGTATTTGGG (site GCGAACCCTCC)
Second: GCGAATCCATGGACCGGTTTTCCCGGTAATCCGTATTTGGG (site GCGAAGCCTCC)
The “recombinant UMI read abundance (log10)” value of the first is lower: 0 for the first, 0.23 for the second.

Compared with “GCGAATCCATGGACCGGTTTTCCCGGTAATCCGTATTTGGG (site GCGAATCCTCC)”, “GCGACGCCATGGACCGGTTTTCCCGGTAATCCGTATTTGTC (site GCGACGCCTGA)” is higher in “recombinant UMI read abundance (log10)” value: 0.00555 for the first, 2.1 for the second.

Going from “GCGAGAACATGGACCGGTTTTCCCGGTAATCCGTATTTGCT (site GCGAAAACTAG)” to “GCGAGAACATGGACCGGTTTTCCCGGTAATCCGTATTTGCT (site GCGACAACTAG)”, the “recombinant UMI read abundance (log10)” value falls from 1.35 to 0.

First: GCGAGAACATGGACCGGTTTTCCCGGTAATCCGTATTTGCT (site GCGAGAACTAG)
Second: GCGAGAACATGGACCGGTTTTCCCGGTAATCCGTATTTGCT (site GCGATAACTAG)
The “recombinant UMI read abundance (log10)” value of the first is higher: 2.24 for the first, 0.492 for the second.

Going from “GCGAGCTCATGGACCGGTTTTCCCGGTAATCCGTATTTGGG (site GCGAGCTCTCC)” to “GCGATCCCATGGACCGGTTTTCCCGGTAATCCGTATTTGCG (site GCGATCCCTCG)”, the “recombinant UMI read abundance (log10)” value rises from 0.714 to 1.71.

Compared with “GCGCCCTCATGGACCGGTTTTCCCGGTAATCCGTATTTGGC (site TGAAGTCCTCT)”, “GCGCCGACATGGACCGGTTTTCCCGGTAATCCGTATTTGAC (site GCGCCGACTGT)” is higher in “recombinant UMI read abundance (log10)” value: 0.0178 for the first, 2.07 for the second.

Compared with “GCGCGAACATGGACCGGTTTTCCCGGTAATCCGTATTTGAC (site GCGCGAACTGT)”, “GCGCGCGCATGGACCGGTTTTCCCGGTAATCCGTATTTGGA (site GCGCGCGCTTC)” is lower in “recombinant UMI read abundance (log10)” value: 1.77 for the first, 0.527 for the second.

“GCGCGGGCATGGACCGGTTTTCCCGGTAATCCGTATTTGGC (site GCGCGGGCTGC)” and “GCGCTAACATGGACCGGTTTTCCCGGTAATCCGTATTTGAC (site GCGCTAACTGT)” are within 0.2 log units of each other in “recombinant UMI read abundance (log10)” value: 2.54 for the first, 2.61 for the second.

Going from “GCGCTAGCATGGACCGGTTTTCCCGGTAATCCGTATTTGCA (site GCGCTAGCTTG)” to “GCGCTGGCATGGACCGGTTTTCCCGGTAATCCGTATTTGCG (site GCGCTGGCTCG)”, the “recombinant UMI read abundance (log10)” value falls from 2.2 to 0.891.

Going from “GCGGAATCATGGACCGGTTTTCCCGGTAATCCGTATTTGTT (site GCGGAATCTAA)” to “GCGGAGCCATGGACCGGTTTTCCCGGTAATCCGTATTTGGG (site GCGAAGCCTCC)”, the “recombinant UMI read abundance (log10)” value falls from 2.76 to 0.0138.

“GCGGAGCCATGGACCGGTTTTCCCGGTAATCCGTATTTGGG (site GCGCAGCCTCC)” and “GCGGAGCCATGGACCGGTTTTCCCGGTAATCCGTATTTGGG (site GCGGAGCCTCC)” are within 0.2 log units of each other in “recombinant UMI read abundance (log10)” value: 0 for the first, 0.0323 for the second.

First: GCGGAGCCATGGACCGGTTTTCCCGGTAATCCGTATTTGGG (site GCGTAGCCTCC)
Second: GCGGAGGCATGGACCGGTTTTCCCGGTAATCCGTATTTGAG (site GCGGAGGCTCT)
The “recombinant UMI read abundance (log10)” value of the first is lower: 0.0221 for the first, 1.89 for the second.

First: GCGGCCCCATGGACCGGTTTTCCCGGTAATCCGTATTTGAT (site GCGGCCCCTAT)
Second: GCGGCGACATGGACCGGTTTTCCCGGTAATCCGTATTTGGC (site GCGGCGACTGC)
The “recombinant UMI read abundance (log10)” value of the first is lower: 0.00951 for the first, 1.99 for the second.

First: GCGGGTGCATGGACCGGTTTTCCCGGTAATCCGTATTTGTA (site GCGGGTGCTTA)
Second: GCGTAATCATGGACCGGTTTTCCCGGTAATCCGTATTTGCC (site GCGTAATCTGG)
The “recombinant UMI read abundance (log10)” value of the first is higher: 2.6 for the first, 2.11 for the second.

First: GCGTACGCATGGACCGGTTTTCCCGGTAATCCGTATTTGTT (site GCGTACGCTAA)
Second: GCGTAGCCATGGACCGGTTTTCCCGGTAATCCGTATTTGGG (site GCGAAGCCTCC)
The “recombinant UMI read abundance (log10)” value of the first is higher: 1.84 for the first, 0.00823 for the second.

“GCGTAGCCATGGACCGGTTTTCCCGGTAATCCGTATTTGGG (site GCGCAGCCTCC)” and “GCGTAGCCATGGACCGGTTTTCCCGGTAATCCGTATTTGGG (site GCGGAGCCTCC)” are within 0.2 log units of each other in “recombinant UMI read abundance (log10)” value: 0.00818 for the first, 0.0167 for the second.

“GCGTAGCCATGGACCGGTTTTCCCGGTAATCCGTATTTGGG (site GCGTAGCCTCC)” and “GCGTCACCATGGACCGGTTTTCCCGGTAATCCGTATTTGTT (site GCGTCACCTAA)” are within 0.2 log units of each other in “recombinant UMI read abundance (log10)” value: 0.0103 for the first, 0.0187 for the second.

Compared with “GCGTTTACATGGACCGGTTTTCCCGGTAATCCGTATTTGCT (site ACGTTTACTAG)”, “GCGTTTACATGGACCGGTTTTCCCGGTAATCCGTATTTGCT (site CCGTTTACTAG)” is lower in “recombinant UMI read abundance (log10)” value: 1.3 for the first, 0 for the second.

First: GCGTTTACATGGACCGGTTTTCCCGGTAATCCGTATTTGCT (site GCGTTTACTAG)
Second: GCGTTTACATGGACCGGTTTTCCCGGTAATCCGTATTTGCT (site TCGTTTACTAG)
The “recombinant UMI read abundance (log10)” value of the first is higher: 1.6 for the first, 0.474 for the second.

“GCTAAAACATGGACCGGTTTTCCCGGTAATCCGTATTTGCT (site GCAAAAACTAG)” and “GCTAAAACATGGACCGGTTTTCCCGGTAATCCGTATTTGCT (site GCCAAAACTAG)” are the same in “recombinant UMI read abundance (log10)” value: 0 for the first, 0 for the second.

First: GCTAAAACATGGACCGGTTTTCCCGGTAATCCGTATTTGCT (site GCGAAAACTAG)
Second: GCTAAAACATGGACCGGTTTTCCCGGTAATCCGTATTTGCT (site GCTAAAACTAG)
The “recombinant UMI read abundance (log10)” value of the first is higher: 1.28 for the first, 1.01 for the second.

“GCTAACTCATGGACCGGTTTTCCCGGTAATCCGTATTTGGG (site GCTAACTCTCC)” and “GCTAAGCCATGGACCGGTTTTCCCGGTAATCCGTATTTGGG (site GCAAAGCCTCC)” are within 0.2 log units of each other in “recombinant UMI read abundance (log10)” value: 0.0314 for the first, 0.00437 for the second.

“GCTAAGCCATGGACCGGTTTTCCCGGTAATCCGTATTTGGG (site GCCAAGCCTCC)” and “GCTAAGCCATGGACCGGTTTTCCCGGTAATCCGTATTTGGG (site GCGAAGCCTCC)” are within 0.2 log units of each other in “recombinant UMI read abundance (log10)” value: 0.0229 for the first, 0.00564 for the second.

For “GCTAAGCCATGGACCGGTTTTCCCGGTAATCCGTATTTGGG (site GCTAAGCCTCC)”, the “recombinant UMI read abundance (log10)” value was 0.0172.
